These results are taken from publication PMC7486443, “Generation of Phenothiazine with Potent Anti-TLK1 Activity for Prostate Cancer Therapy” (iScience, 2020).

Among the targets are TNK2 (Homo sapiens, UniProt Q07912); DDR2 (Homo sapiens, UniProt Q16832); KIT(D816V) (Homo sapiens, UniProt P10721, D816V); NEK2 (Homo sapiens, UniProt P51955); ABL2 (Homo sapiens, UniProt P42684); CDKL3 (Homo sapiens, UniProt Q8IVW4); STK35 (Homo sapiens, UniProt Q8TDR2); EIF2AK1 (Homo sapiens, UniProt Q9BQI3); KIT(V559D) (Homo sapiens, UniProt P10721, V559D); MST1R (Homo sapiens, UniProt Q04912); CSNK1A1 (Homo sapiens, UniProt P48729); PIK3CA(Q546K) (Homo sapiens, UniProt P42336, Q546K).

Holding throughout (experiment): biochemical
Design in all cases: DiscoverX KINOMEscan scanMAX competition binding panel, single concentration, percent of control; remaining binding: dose or concentration left out as unconfirmed
Holding throughout (settings): KINOMEscan binding, percent of control; read-out: Table S4_SCANMAX REPORT - related to Fig. 1 / Percent Control

Assay [1] deals with T1, RSK2(Kin.Dom.2-C-terminal) (Homo sapiens, UniProt P51812).
T1 construct: gene RPS6KA3; Kin.Dom.2-C-terminal

In a further assay the target is T2, PIP5K2B (Homo sapiens, UniProt P78356).
T2 construct: gene PIP4K2B

The next assay deals with T3, VEGFR2 (Homo sapiens, UniProt P35968).
T3 construct: gene KDR
T3 sequence (P35968 whole entry): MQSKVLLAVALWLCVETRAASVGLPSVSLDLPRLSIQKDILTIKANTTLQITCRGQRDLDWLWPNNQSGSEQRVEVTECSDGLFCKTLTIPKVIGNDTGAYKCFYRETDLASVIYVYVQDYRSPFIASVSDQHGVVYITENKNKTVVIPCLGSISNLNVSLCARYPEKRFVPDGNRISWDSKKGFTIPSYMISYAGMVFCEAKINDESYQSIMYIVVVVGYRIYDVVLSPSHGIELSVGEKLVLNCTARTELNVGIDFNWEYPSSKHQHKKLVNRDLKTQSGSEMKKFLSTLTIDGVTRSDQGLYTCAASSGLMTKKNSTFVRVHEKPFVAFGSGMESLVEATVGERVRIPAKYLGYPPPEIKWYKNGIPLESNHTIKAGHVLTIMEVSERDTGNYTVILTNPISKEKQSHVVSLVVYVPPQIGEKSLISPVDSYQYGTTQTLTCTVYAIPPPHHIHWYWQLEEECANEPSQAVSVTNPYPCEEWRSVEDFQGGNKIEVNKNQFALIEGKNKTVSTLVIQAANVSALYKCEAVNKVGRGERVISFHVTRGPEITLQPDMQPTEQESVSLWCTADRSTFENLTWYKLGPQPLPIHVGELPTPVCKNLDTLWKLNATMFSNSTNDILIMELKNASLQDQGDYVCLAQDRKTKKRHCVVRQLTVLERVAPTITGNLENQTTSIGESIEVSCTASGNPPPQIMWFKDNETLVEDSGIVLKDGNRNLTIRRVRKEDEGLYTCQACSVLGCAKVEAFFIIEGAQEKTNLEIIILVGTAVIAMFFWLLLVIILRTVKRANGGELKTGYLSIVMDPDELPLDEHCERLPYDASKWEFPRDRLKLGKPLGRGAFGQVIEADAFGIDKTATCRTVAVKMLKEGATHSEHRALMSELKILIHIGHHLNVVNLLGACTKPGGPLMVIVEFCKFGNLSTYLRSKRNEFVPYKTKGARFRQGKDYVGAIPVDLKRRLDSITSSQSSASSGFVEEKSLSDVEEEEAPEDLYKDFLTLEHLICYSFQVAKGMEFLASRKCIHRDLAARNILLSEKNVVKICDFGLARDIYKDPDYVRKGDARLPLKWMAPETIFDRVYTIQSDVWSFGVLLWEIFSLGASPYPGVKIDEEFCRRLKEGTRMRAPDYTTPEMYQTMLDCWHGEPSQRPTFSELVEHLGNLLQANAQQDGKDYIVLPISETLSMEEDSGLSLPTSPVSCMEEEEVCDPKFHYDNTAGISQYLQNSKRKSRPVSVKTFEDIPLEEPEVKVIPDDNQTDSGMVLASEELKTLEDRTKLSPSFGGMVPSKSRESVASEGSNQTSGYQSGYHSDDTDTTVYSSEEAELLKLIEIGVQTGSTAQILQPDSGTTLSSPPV

For the next assay, the target named is T4, TIE2 (Homo sapiens, UniProt Q02763).
T4 construct: gene TEK

The target in a further assay is T5, ZAK (Homo sapiens, UniProt Q9NYL2).
T5 construct: gene MAP3K20

The next assay addresses T6, IKK-epsilon (Homo sapiens, UniProt Q14164).
T6 construct: gene IKBKE

TNK2, sequence (Q07912 whole entry): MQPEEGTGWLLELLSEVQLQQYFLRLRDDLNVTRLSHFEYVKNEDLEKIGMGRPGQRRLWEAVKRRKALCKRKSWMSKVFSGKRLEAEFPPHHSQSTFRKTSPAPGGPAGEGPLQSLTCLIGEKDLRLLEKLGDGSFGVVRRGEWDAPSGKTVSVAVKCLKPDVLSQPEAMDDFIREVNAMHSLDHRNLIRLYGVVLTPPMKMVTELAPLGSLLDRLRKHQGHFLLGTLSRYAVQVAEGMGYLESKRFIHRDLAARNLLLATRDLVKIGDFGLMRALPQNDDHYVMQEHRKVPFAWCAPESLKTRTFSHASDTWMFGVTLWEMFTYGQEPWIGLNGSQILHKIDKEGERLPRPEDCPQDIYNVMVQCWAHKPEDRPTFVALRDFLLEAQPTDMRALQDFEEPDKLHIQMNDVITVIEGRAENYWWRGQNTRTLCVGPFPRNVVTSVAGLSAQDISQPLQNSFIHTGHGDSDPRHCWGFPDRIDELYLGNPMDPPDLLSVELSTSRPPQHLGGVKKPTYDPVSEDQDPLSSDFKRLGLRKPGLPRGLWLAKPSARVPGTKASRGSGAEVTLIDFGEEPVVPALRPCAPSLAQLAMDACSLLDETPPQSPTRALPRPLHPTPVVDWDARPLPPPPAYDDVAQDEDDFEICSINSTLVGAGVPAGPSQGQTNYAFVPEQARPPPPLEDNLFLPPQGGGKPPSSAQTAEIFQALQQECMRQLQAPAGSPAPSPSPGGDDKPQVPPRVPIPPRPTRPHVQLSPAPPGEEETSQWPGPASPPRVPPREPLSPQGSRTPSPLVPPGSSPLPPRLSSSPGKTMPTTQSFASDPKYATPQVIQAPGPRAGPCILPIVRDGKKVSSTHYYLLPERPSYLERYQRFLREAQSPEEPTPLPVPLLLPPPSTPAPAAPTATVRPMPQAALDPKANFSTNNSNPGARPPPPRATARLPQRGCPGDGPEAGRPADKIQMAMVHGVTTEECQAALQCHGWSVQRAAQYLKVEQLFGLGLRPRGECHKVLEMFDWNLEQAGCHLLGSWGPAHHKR
EIF2AK1, sequence (Q9BQI3 whole entry): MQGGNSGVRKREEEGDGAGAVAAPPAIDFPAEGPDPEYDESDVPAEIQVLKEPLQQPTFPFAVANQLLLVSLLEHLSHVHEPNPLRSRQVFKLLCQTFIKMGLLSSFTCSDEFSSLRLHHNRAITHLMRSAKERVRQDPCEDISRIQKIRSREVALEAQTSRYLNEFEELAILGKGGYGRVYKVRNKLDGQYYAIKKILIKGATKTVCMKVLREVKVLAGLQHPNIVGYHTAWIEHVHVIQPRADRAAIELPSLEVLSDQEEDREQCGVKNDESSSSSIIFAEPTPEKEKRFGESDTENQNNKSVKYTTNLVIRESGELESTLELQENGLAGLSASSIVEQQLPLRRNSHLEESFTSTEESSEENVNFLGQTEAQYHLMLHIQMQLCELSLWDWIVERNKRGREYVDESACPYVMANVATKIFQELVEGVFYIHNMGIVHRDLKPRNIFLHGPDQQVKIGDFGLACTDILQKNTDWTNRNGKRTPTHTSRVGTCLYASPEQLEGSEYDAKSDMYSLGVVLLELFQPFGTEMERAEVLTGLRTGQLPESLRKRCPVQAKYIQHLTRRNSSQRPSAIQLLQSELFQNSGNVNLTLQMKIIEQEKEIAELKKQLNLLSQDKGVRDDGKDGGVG
DDR2, sequence (Q16832 whole entry): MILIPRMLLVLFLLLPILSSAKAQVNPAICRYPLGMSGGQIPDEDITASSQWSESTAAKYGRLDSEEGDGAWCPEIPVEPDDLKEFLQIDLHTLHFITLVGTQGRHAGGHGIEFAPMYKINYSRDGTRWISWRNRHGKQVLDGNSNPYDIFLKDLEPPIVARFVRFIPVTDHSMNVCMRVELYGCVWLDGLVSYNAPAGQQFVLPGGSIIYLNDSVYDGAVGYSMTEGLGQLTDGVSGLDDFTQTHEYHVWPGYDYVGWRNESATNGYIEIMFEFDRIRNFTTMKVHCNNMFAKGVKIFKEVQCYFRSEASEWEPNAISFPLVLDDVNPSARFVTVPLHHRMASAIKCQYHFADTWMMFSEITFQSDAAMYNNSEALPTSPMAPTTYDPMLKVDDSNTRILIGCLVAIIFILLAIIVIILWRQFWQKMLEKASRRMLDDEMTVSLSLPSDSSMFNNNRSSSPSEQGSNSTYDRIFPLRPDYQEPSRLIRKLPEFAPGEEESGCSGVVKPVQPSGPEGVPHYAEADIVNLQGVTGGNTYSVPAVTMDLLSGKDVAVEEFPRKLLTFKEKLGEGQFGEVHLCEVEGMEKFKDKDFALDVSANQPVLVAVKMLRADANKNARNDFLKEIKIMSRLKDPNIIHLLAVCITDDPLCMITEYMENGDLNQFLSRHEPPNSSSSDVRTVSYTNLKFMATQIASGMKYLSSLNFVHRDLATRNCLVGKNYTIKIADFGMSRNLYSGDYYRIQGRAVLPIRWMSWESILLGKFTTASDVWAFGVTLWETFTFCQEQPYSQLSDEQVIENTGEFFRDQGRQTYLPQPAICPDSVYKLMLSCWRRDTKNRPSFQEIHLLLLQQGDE
PIK3CA(Q546K), sequence (P42336 whole entry Q546K): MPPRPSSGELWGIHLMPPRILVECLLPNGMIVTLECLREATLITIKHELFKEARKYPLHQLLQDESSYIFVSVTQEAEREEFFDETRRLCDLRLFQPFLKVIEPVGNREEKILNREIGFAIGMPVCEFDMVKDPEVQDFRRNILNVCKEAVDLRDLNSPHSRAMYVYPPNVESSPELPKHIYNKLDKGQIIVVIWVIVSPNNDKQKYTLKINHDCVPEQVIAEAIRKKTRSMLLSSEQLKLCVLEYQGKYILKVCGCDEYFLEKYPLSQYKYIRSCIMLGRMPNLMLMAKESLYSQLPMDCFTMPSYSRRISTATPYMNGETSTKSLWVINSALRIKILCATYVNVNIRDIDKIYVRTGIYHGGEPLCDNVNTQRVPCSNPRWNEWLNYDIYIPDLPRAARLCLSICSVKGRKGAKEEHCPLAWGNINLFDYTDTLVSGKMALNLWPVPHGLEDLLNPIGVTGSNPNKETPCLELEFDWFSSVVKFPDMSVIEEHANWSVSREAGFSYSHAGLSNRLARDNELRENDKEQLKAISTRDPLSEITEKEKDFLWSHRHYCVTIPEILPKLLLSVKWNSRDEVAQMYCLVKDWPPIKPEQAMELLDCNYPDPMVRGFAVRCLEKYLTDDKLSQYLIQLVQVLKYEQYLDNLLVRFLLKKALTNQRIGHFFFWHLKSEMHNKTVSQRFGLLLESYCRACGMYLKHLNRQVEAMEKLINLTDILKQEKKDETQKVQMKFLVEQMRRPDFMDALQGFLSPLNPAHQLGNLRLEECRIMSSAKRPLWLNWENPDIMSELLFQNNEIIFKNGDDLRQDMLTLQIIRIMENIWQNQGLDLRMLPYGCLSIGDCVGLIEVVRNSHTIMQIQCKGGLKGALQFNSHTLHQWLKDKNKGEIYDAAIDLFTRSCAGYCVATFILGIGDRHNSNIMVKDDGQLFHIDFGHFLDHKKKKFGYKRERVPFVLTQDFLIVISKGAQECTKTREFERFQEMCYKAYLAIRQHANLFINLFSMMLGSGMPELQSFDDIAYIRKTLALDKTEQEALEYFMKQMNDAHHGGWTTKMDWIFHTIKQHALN

On to `c1ccc2c(c1)Sc1ccccc1N2CCN1CCOCC1` [J54], for which the remaining binding at TNK2 stood at 100%; at DDR2, 88%; on KIT(D816V), 96%; on NEK2, 100%; on ABL2, 100%; on CDKL3 it was 100%. For the same molecule, the remaining binding in assay [1] was 89%; at PIP5K2B it was 51%; on STK35, 82%; on EIF2AK1, 90%; on KIT(V559D), 100%; on MST1R it was 100%. Also, the remaining binding at CSNK1A1 is 100%; at VEGFR2, 100%; on PIK3CA(Q546K) it was 100%; at TIE2, 76%; on ZAK, 85%; on IKK-epsilon, 75%.
